# Reference: ChEMBL document CHEMBL2029203, “Discovery of potent antimicrobial peptide analogs of Ixosin-B” (Bioorg Med Chem Lett, 2012)
# Residues, ends and D or L forms follow the SMILES beside them.
# Columns and labels:
# Escherichia coli [1] = test: Antimicrobial activity against Escherichia coli ATCC 25922 after 18 to 20 hrs by spectrophotometry; type: functional
# Staphylococcus aureus [2] = test: Antimicrobial activity against Staphylococcus aureus ATCC 25923 after 18 to 20 hrs by spectrophotometry; type: functional
# Pseudomonas aeruginosa = test: Antimicrobial activity against Pseudomonas aeruginosa ATCC 27853 after 18 to 20 hrs by spectrophotometry; type: functional
# [3] = Toxicity against human erythrocytes assessed as hemolysis at 100 uM after 1 hr by spectrophotometry; type: cell-based, Erythrocyte; details: read-out: Activity
# Escherichia coli [4] = test: Antimicrobial activity against Escherichia coli; type: functional
# Staphylococcus aureus [5] = test: Antimicrobial activity against Staphylococcus aureus; type: functional
# Candida albicans = test: Antimicrobial activity against Candida albicans; type: functional
SMILES,MIC (Escherichia coli [1]) [µM],MIC (Staphylococcus aureus [2]) [µM],MIC (Pseudomonas aeruginosa) [µM],MIC (Escherichia coli [4]) [µg/mL],MIC (Staphylococcus aureus [5]) [µg/mL],MIC (Candida albicans) [µg/mL],"hemolysis at 1 h, 100 µM [3] [%]"
CC[C@H](C)[C@H](NC(=O)CNC(=O)[C@H](CO)NC(=O)[C@H](CCCNC(=N)N)NC(=O)[C@@H](NC(=O)CNC(=O)[C@H](Cc1c[nH]c2ccccc12)NC(=O)[C@@H](N)CC(C)C)[C@@H](C)O)C(=O)N[C@@H](CCC(N)=O)C(=O)N1CCC[C@H]1C(=O)N[C@@H](CCC(=O)O)C(=O)N[C@@H](CCC(N)=O)C(=O)N[C@@H](Cc1cnc[nH]1)C(N)=O (H-LWGTRSGIQPEQH-NH2),> 100,> 100,> 100,–,–,–,–
CC(C)[C@H](NC(=O)[C@H](CC(=O)O)NC(=O)[C@H](CO)NC(=O)[C@@H](N)CCCCN)C(=O)N[C@@H](CCCNC(=N)N)C(=O)N[C@@H](CCCNC(=N)N)C(=O)N[C@@H](Cc1c[nH]c2ccccc12)C(=O)N[C@@H](CCCNC(=N)N)C(=O)N[C@@H](CO)C(=O)N[C@@H](CCCNC(=N)N)C(=O)N[C@@H](Cc1ccc(O)cc1)C(N)=O (H-KSDVRRWRSRY-NH2),> 100,> 100,> 100,–,–,–,–
CC(C)[C@H](NC(=O)[C@H](CC(=O)O)NC(=O)[C@H](CO)NC(=O)[C@H](CCCCN)NC(=O)CNC(=O)[C@H](CO)NC(=O)[C@H](CO)NC(=O)[C@H](Cc1cnc[nH]1)NC(=O)[C@@H](N)CCC(N)=O)C(=O)N[C@@H](CCCNC(=N)N)C(=O)N[C@@H](CCCNC(=N)N)C(=O)N[C@@H](Cc1c[nH]c2ccccc12)C(N)=O (H-QHSSGKSDVRRW-NH2),> 100,> 100,> 100,–,–,–,–
CC[C@H](C)[C@H](NC(=O)CNC(=O)[C@H](CO)NC(=O)[C@H](CCCNC(=N)N)NC(=O)[C@@H](NC(=O)CNC(=O)[C@H](Cc1c[nH]c2ccccc12)NC(=O)[C@H](CC(C)C)NC(=O)[C@H](CC(=O)O)NC(=O)[C@@H](NC(=O)[C@H](CCCCN)NC(=O)[C@H](CC(C)C)NC(=O)[C@@H](N)CCC(N)=O)C(C)C)[C@@H](C)O)C(N)=O (H-QLKVDLWGTRSGI-NH2),> 100,> 100,> 100,–,–,–,–
CC1(C)S[C@@H]2[C@H](NC(=O)Cc3ccccc3)C(=O)N2[C@H]1C(=O)O [PENICILLIN G],> 100,0.5,> 100,–,–,–,–

# Now those with a lower MIC (Escherichia coli [1]), led by results:
MIC (Escherichia coli [1]) [µM],MIC (Staphylococcus aureus [2]) [µM],MIC (Pseudomonas aeruginosa) [µM],MIC (Escherichia coli [4]) [µg/mL],MIC (Staphylococcus aureus [5]) [µg/mL],MIC (Candida albicans) [µg/mL],SMILES,"hemolysis at 1 h, 100 µM [3] [%]"
30,5,20,–,–,–,CC(C)C[C@H](NC(=O)[C@H](CCCNC(=N)N)NC(=O)[C@@H](N)CCCCN)C(=O)N[C@@H](CCCNC(=N)N)C(=O)N[C@@H](CCCNC(=N)N)C(=O)N[C@H](C(=O)N[C@@H](Cc1c[nH]c2ccccc12)C(=O)N[C@@H](CCCNC(=N)N)C(=O)N[C@@H](CCCNC(=N)N)C(=O)N[C@@H](Cc1c[nH]c2ccccc12)C(=O)N[C@@H](CCCNC(=N)N)C(N)=O)C(C)C (H-KRLRRVWRRWR-NH2),3
15,2.5,20,–,–,–,CC(C)C[C@H](NC(=O)[C@H](Cc1c[nH]c2ccccc12)NC(=O)[C@@H](N)CCCCN)C(=O)N[C@@H](CCCNC(=N)N)C(=O)N[C@@H](CCCNC(=N)N)C(=O)N[C@H](C(=O)N[C@@H](Cc1c[nH]c2ccccc12)C(=O)N[C@@H](CCCNC(=N)N)C(=O)N[C@@H](Cc1c[nH]c2ccccc12)C(=O)N[C@@H](Cc1c[nH]c2ccccc12)C(=O)N[C@@H](CCCNC(=N)N)C(N)=O)C(C)C (H-KWLRRVWRWWR-NH2),100
30,60,40,–,–,–,CC(C)C[C@H](NC(=O)[C@H](CO)NC(=O)[C@@H](N)CCCCN)C(=O)N[C@@H](CCCNC(=N)N)C(=O)N[C@@H](CCCNC(=N)N)C(=O)N[C@H](C(=O)N[C@@H](Cc1c[nH]c2ccccc12)C(=O)N[C@@H](CCCNC(=N)N)C(=O)N[C@@H](CO)C(=O)N[C@@H](Cc1c[nH]c2ccccc12)C(=O)N[C@@H](CCCNC(=N)N)C(N)=O)C(C)C (H-KSLRRVWRSWR-NH2),0
80,80,> 80,15,2.5,7.5,CC[C@H](C)[C@H](NC(=O)CNC(=O)[C@H](CO)NC(=O)[C@H](CCCNC(=N)N)NC(=O)[C@@H](NC(=O)CNC(=O)[C@H](Cc1c[nH]c2ccccc12)NC(=O)[C@H](CC(C)C)NC(=O)[C@H](CC(=O)O)NC(=O)[C@@H](NC(=O)[C@H](CCCCN)NC(=O)[C@H](CC(C)C)NC(=O)[C@@H](N)CCC(N)=O)C(C)C)[C@@H](C)O)C(=O)N[C@@H](CCC(N)=O)C(=O)N1CCC[C@H]1C(=O)N[C@@H](CCC(=O)O)C(=O)N[C@@H](CCC(N)=O)C(=O)N[C@@H](Cc1cnc[nH]1)C(=O)N[C@@H](CO)C(=O)N[C@@H](CO)C(=O)NCC(=O)N[C@@H](CCCCN)C(=O)N[C@@H](CO)C(=O)N[C@@H](CC(=O)O)C(=O)N[C@H](C(=O)N[C@@H](CCCNC(=N)N)C(=O)N[C@@H](CCCNC(=N)N)C(=O)N[C@@H](Cc1c[nH]c2ccccc12)C(=O)N[C@@H](CCCNC(=N)N)C(=O)N[C@@H](CO)C(=O)N[C@@H](CCCNC(=N)N)C(=O)N[C@@H](Cc1ccc(O)cc1)C(N)=O)C(C)C [Ixosin-B-amide] (H-QLKVDLWGTRSGIQPEQHSSGKSDVRRWRSRY-NH2),0
30,30,40,–,–,–,CC(C)C[C@H](NC(=O)[C@H](CO)NC(=O)[C@@H](N)CCCCN)C(=O)N[C@H](C(=O)N[C@@H](CCCNC(=N)N)C(=O)N[C@@H](CCCNC(=N)N)C(=O)N[C@@H](Cc1c[nH]c2ccccc12)C(=O)N[C@@H](CCCNC(=N)N)C(=O)N[C@@H](CO)C(=O)N[C@@H](CCCNC(=N)N)C(=O)N[C@@H](Cc1c[nH]c2ccccc12)C(N)=O)C(C)C (H-KSLVRRWRSRW-NH2),0
